This is an account of results in patent US20240327364A1, “THERAPEUTIC TARGETING OF GPR68 TO INDUCE FERROPTOSIS” (University Of Maryland, Baltimore, priority 2023, published 2024).

One test concerns the target T1, ANKK1 (Homo sapiens, UniProt Q8NFD2).
T1 construct: purchased DiscoveRx (Fremont, CA)
Kind of test: KinomeScan. It is filed as binding. The settings on record: read-out: % Control.

A further test addresses T2, BIKE (Homo sapiens, UniProt Q9NSY1).
T2 construct: purchased DiscoveRx (Fremont, CA)
As to the kind of experiment: KinomeScan. Type of test: binding. As to conditions: read-out: % Control.

Another test concerns the target T3, BMPR2 (Homo sapiens, UniProt Q13873).
T3 construct: purchased DiscoveRx (Fremont, CA)
As to the kind of experiment: KinomeScan. The settings on record: read-out: % Control. It is filed as binding.

The target in a further test is T4, BRAF (Homo sapiens, UniProt P15056).
T4 construct: purchased DiscoveRx (Fremont, CA)
Kind of test: KinomeScan. It is filed as binding. The settings on record: read-out: % Control.

Another test has as its target CSNK1A1L (Homo sapiens, UniProt Q8N752). Kind of test: KinomeScan. It is filed as binding. The settings on record: read-out: % Control.
For the next test, the target named is T5, EPHA2 (Homo sapiens, UniProt P29317).
T5 construct: purchased DiscoveRx (Fremont, CA)
As to the kind of experiment: KinomeScan. Type of test: binding. The settings on record: read-out: % Control.

The next test addresses T6, GRK7 (Homo sapiens, UniProt Q8WTQ7).
T6 construct: purchased DiscoveRx (Fremont, CA)
Kind of test: KinomeScan. Type of test: binding. The settings on record: read-out: % Control.

In a further test the target is T7, KIT(D816V) (Homo sapiens, UniProt P10721, D816V).
T7 construct: purchased DiscoveRx
As to the kind of experiment: KinomeScan. Type of test: binding. The settings on record: read-out: % Control.

For a further test, the target named is T8, LIMK2 (Homo sapiens, UniProt P53671).
T8 construct: purchased DiscoveRx
Kind of test: KinomeScan. Type of test: binding. The settings on record: read-out: % Control.

A further test deals with T9, LRRK2 (Homo sapiens, UniProt Q5S007).
T9 construct: purchased DiscoveRx
Kind of test: KinomeScan. Type of test: binding. The settings on record: read-out: % Control.

Another test deals with T10, LZK (Homo sapiens, UniProt O43283).
T10 construct: purchased DiscoveRx
Kind of test: KinomeScan. It is filed as binding. As to conditions: read-out: % Control.

The next test has as its target T11, MAP4K4 (Homo sapiens, UniProt O95819).
T11 construct: purchased DiscoveRx (Fremont, CA)
Kind of test: KinomeScan. Type of test: binding. As to conditions: read-out: % Control.

For another test, the target named is T12, MINK (Homo sapiens, UniProt Q8N4C8).
T12 construct: purchased DiscoveRx
T12 sequence (Q8N4C8 whole entry): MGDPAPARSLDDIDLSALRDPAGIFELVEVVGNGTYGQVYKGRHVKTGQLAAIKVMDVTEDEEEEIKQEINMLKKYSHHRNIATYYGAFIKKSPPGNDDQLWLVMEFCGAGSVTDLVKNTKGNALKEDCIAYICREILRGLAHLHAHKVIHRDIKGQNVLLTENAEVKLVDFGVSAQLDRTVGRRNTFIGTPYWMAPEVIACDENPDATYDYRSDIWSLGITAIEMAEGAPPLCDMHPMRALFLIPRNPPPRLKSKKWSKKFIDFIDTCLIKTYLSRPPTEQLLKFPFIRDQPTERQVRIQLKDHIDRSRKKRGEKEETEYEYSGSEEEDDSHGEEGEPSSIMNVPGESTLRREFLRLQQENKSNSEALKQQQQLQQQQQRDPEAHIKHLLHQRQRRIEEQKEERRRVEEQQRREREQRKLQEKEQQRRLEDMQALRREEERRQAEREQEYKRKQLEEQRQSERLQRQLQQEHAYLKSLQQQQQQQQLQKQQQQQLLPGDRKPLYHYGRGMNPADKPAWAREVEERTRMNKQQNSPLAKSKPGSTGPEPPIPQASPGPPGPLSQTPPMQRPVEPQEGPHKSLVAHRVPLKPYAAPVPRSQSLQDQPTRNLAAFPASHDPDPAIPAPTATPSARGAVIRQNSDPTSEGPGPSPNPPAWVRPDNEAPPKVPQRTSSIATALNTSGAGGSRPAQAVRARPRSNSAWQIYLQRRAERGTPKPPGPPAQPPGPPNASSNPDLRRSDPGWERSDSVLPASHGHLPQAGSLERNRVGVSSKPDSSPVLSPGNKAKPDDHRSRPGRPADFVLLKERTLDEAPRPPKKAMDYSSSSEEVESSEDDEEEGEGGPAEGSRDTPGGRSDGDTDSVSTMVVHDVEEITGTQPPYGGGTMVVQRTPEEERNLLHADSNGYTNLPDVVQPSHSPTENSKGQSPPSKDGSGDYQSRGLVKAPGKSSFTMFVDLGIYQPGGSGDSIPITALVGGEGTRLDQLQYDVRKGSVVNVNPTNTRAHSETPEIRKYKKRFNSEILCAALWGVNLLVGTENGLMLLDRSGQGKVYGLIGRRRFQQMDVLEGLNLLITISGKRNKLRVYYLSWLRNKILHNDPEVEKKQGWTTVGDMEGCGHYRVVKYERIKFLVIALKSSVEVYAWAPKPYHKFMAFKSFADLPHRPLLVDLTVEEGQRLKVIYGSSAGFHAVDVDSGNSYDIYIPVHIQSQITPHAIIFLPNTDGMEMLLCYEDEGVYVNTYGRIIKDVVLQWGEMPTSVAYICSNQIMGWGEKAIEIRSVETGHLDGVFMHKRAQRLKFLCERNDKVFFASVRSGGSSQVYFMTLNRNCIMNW
Kind of test: KinomeScan. Type of test: binding. As to conditions: read-out: % Control.

The target in a further test is T13, NEK2 (Homo sapiens, UniProt P51955).
T13 construct: purchased DiscoveRx
As to the kind of experiment: KinomeScan. It is filed as binding. The settings on record: read-out: % Control.

A further test has as its target T14, PRKG2 (Homo sapiens, UniProt Q13237).
T14 construct: purchased DiscoveRx (Fremont, CA)
Kind of test: KinomeScan. It is filed as binding. The settings on record: read-out: % Control.

Another test concerns the target T15, RET(M918T) (Homo sapiens, UniProt P07949, M918T).
T15 construct: purchased DiscoveRx (Fremont, CA)
As to the kind of experiment: KinomeScan. Type of test: binding. As to conditions: read-out: % Control.

The target of test [1] is T16, RPS6KA5(Kin.Dom.2-C-terminal) (Homo sapiens, UniProt O75582).
T16 construct: RPS6KA5(Kin.Dom.2-C-terminal); purchased DiscoveRx (Fremont, CA)
As to the kind of experiment: KinomeScan. As to conditions: read-out: % Control. It is filed as binding.

The target of a further test is T17, TIE1 (Homo sapiens, UniProt P35590).
T17 construct: purchased DiscoveRx (Fremont, CA)
As to the kind of experiment: KinomeScan. It is filed as binding. The settings on record: read-out: % Control.

A further test has as its target T18, ADRA1A (Homo sapiens, UniProt P35348).
T18 construct: host or cells: Chem-1 cells with promiscuous Gα15
As to the kind of experiment: GPCR Profiler. Type of test: cell-based.

A further test has as its target T19, EP4 (Homo sapiens, UniProt P35408).
T19 construct: host or cells: Chem-1 cells expressing Gα15
Kind of test: GPCR Profiler. Type of test: cell-based.

The next test deals with T20, IP1 (Homo sapiens, UniProt P43119).
T20 construct: host or cells: Chem-1 cells with promiscuous Gα15
T20 sequence (P43119 whole entry): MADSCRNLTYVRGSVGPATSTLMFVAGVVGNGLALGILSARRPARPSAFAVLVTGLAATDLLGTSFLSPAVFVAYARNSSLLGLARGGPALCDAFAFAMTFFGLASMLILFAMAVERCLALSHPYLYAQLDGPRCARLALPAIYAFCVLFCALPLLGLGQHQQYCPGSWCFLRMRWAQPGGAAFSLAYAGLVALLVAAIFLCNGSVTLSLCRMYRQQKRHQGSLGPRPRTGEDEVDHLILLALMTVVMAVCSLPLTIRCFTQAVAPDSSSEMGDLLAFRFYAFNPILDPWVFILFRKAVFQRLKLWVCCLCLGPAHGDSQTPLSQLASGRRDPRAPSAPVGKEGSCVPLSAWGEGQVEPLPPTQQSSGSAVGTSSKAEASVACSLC
Kind of test: GPCR Profiler. It is filed as cell-based.

Another test addresses T21, PK2 (Homo sapiens, UniProt Q8NFJ6).
T21 construct: host or cells: Chem-1 cells with Gα15
As to the kind of experiment: GPCR Profiler. It is filed as cell-based.

In another test the target is T22, V1B (Homo sapiens, UniProt P47901).
T22 construct: host or cells: Chem-1 cells with Gα15
T22 sequence (P47901 whole entry): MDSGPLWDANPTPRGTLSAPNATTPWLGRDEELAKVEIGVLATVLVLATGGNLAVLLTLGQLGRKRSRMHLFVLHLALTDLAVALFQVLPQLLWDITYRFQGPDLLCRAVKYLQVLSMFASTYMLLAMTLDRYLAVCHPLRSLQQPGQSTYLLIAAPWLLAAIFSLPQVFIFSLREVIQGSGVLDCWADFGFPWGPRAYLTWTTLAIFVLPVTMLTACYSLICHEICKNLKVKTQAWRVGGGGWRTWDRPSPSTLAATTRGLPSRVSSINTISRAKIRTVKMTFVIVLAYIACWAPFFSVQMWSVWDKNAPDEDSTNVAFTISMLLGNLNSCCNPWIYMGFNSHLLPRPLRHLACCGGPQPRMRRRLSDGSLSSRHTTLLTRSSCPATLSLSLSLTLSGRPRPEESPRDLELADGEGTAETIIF
As to the kind of experiment: GPCR Profiler. Type of test: cell-based.

Another test concerns Hep G2. Kind of test: Cell Titer-Glo viability, Hepatocellular cancer. Type of test: cell-based. On the procedure: OGM2 kills wide variety of cancer cell types. Cell sensitivity can be classified in to Very Sensitive (LC50<2 μM), Sensitive (LC50=2 to 10 μM), Mildly Sensitive (LC50>10 μM), and Refractory (no killing at 10 μM). The listed established cell were incubated with OGM2 at 2 μM or 10 μM for 72 hours under standard cell culture conditions, and relative cell number was assessed using Cell Titer-Glo Luminescent Cell Viability Assay (Promega™) following the manufacturer's instructions. Luminescence was determined using a Cytation 5 reader and Gen5 software package (BioTek™).
Cancer cells, which are very sensitive to killing by OGM2 (LCs <2 μM), with reported mRNA expression of GPR68 and the related proton sensing receptor GPR4. LC50's (concentrations causing 50% lethality) were determined using CellTiter-Glo (Promega™, G7570). Cells were plated in 12-well plates (CELLTREAT Scientific Products, 229112) in 1 ml of DMEM with high glucose, GlutaMAX, HEPES, or RPMI 1640 with Penicillin-Streptomycin (ThermoFisher™, 10564029, 11875119 and 15140122) and 10% FBS. Cells were incubated overnight at 37° C. in 5% CO2. Then 1 mL of fresh media was added with DMSO, OGM, or positive control (Erastin; APExBIO Technology, LLC, B1524) and cells incubated for 3 days. On the third day, all media was removed, cells were rinsed with 1×PBS, PBS was removed, and 200 μL of 1× Passive Lysis Buffer (Promega™, E1941) was added to each well. […]. Subsequently, 20 μL of lysate was added to 100 μL CellTiter-Glo™ reagent on a LUMITRAC 200 plate (Greiner™ bio-one, 82050-726). Plates were briefly spun down and read on a GloMax-Multi Detection System (Promega™).
The cells listed in the tables above were incubated with OGM2 at 2 μM or 10 μM for 72 hours under standard cell culture conditions, and relative cell number was assessed using Cell Titer-Glo Luminescent Cell Viability Assay (Promega™) following the manufacturer's instructions. Luminescence was determined using a Cytation 5 reader and Gen5 software package (BioTek™). RNA expression of GPR68 and GPR4 in the corresponding cancer cell lines are listed, according to the publicly available The Human Protein Atlas version 22.0 and Ensembl version 103.38 (see proteinatlas.org). The consensus normalized expression value (“nTPM”=normalize transcript per million) was calculated as the maximum nTPM value for each gene in the two data sources.

T18 sequence (P35348 whole entry): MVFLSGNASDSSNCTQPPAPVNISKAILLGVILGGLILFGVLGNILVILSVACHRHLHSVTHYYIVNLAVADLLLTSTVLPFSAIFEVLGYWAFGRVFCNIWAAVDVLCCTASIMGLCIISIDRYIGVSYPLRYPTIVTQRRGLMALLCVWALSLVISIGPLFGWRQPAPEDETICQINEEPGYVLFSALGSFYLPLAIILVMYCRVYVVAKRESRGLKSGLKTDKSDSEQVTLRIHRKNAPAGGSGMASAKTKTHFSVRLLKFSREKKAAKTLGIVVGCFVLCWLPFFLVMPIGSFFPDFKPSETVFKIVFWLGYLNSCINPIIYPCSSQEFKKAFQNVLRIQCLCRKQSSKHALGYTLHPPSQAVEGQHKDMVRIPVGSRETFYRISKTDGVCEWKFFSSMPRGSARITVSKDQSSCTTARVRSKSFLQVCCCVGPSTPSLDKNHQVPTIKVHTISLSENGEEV
T21 sequence (Q8NFJ6 whole entry): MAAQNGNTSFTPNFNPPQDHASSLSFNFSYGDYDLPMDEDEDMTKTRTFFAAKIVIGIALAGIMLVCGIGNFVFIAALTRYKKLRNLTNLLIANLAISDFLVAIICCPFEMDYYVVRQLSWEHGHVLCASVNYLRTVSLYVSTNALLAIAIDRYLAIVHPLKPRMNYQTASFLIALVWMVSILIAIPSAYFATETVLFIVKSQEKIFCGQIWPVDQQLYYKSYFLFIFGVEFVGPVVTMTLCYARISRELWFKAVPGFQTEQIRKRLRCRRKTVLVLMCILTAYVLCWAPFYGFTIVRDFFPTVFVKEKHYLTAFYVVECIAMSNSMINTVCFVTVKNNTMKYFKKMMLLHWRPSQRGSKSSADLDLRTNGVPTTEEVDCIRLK
T19 sequence (P35408 whole entry): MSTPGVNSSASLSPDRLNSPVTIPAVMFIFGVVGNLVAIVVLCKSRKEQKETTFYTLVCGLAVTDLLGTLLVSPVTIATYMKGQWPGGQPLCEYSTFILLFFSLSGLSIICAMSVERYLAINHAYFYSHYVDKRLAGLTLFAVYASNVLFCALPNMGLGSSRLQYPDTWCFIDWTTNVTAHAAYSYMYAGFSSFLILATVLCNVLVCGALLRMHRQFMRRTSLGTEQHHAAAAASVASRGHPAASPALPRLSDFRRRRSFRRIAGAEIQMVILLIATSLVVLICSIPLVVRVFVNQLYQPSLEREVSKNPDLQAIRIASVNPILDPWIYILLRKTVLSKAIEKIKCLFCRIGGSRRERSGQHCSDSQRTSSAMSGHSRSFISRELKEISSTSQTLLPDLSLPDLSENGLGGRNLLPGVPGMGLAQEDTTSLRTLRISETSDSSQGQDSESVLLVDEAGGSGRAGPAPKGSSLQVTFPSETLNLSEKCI
T14 sequence (Q13237 whole entry): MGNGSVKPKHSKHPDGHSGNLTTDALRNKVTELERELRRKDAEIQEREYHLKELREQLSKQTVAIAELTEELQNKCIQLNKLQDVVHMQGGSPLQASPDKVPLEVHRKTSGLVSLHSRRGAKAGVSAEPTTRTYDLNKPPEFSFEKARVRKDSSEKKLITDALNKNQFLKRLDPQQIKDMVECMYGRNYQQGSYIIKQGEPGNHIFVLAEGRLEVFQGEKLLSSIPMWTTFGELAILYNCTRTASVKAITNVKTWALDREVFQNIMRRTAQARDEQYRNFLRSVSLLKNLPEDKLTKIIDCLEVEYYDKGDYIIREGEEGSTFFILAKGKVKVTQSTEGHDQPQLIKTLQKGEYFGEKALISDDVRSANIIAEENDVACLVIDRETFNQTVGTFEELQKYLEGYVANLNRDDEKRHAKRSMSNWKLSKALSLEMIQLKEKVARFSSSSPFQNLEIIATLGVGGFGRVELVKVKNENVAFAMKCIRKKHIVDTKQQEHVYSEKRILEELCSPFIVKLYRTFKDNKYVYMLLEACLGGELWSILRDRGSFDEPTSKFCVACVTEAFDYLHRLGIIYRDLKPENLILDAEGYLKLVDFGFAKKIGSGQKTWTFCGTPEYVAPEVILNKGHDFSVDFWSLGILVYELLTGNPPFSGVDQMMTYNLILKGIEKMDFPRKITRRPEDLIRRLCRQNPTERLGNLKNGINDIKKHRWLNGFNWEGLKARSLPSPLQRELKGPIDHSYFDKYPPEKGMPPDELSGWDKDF
T6 sequence (Q8WTQ7 whole entry): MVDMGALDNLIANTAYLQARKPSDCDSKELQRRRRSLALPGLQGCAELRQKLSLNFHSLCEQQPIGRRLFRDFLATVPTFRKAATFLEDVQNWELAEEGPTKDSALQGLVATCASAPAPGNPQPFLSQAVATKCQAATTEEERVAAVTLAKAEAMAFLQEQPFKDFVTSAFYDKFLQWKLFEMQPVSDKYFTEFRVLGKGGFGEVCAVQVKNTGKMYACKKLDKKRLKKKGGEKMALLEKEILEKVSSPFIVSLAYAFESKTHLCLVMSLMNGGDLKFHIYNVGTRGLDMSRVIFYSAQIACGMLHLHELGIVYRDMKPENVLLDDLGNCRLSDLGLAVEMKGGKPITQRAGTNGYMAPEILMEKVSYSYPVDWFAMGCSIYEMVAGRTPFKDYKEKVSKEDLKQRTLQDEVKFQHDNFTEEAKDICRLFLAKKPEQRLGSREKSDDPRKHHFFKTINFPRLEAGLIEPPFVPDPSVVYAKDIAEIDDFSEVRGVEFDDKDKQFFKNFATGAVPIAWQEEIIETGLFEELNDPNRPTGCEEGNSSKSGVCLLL

For the compound `CCc1ccc2c(c1)C1(NN=C(c3cccc4ccccc34)S1)C(=O)N2` (centres unmarked) [OGM1, 5-ethyl-5′-naphthalen-1-ylspiro[1H-indole-3,2′-3H-1,3,4-thiadiazole]-2-one], the remaining binding at 10 µM came out at 100% at ANKK1; 88% at BIKE; 92% at BMPR2; 96% at BRAF; 100% at CSNK1A1L; 100% at EPHA2. Also, the remaining binding at 10 µM on GRK7 stood at 73%; on KIT(D816V) it was 100%; on LIMK2, 100%; at LRRK2, 100%; on LZK, 100%; at MAP4K4, 100%. In addition, the remaining binding at 10 µM at MINK came out at 97%; on NEK2, 78%; at PRKG2, 91%; on RET(M918T), 92%; in [1], 91%; on TIE1, 94%. Moreover, the Antagonism at ADRA1A (10 uM) is given as 3; on EP4 (10 uM), −17; at IP1 (10 uM) it was −2; on PK2 (10 uM), 7.2; at V1B (10 uM), −2.8. Also, the Agonism is given as 1.9 on ADRA1A (12.5 uM); 0.9 on EP4 (12.5 uM); −0.5 on IP1 (12.5 uM); −0.1 on PK2 (12.5 uM); −0.1 on V1B (12.5 uM).

With `CCc1ccc2c(c1)C1(NN=C(c3ccccc3)S1)C(=O)N2` (centres unmarked) [OGM2], in the test on Hep G2, the Class entry is “Sensitive (Sensitive (LC50=2 to 10 μM))”. Moreover, in the test on Hep G2 (72 hours), the “% Survival 2 μM OGM” value is 66.8% and the “% Survival 10 μM OGM” value is 45.7%. In addition, in the test on Hep G2 (Homo sapiens, HepG2, 72 hours, read-out: LC50 (the source's name)), the CC50 was 2 to 10 µM.
